Patent publication US4112082A (priority 1975, dated 1978)

Columns and labels:
[1] = test system: spider mites (Tetrantychus strain), Normal Strain; details: in vivo
[2] = test system: spider mites (Tetrantychus strain), Resistant Strain; details: in vivo
[3] = test system: mice; details: mouse, in vivo, sc; cited from earlier work

SMILES	LD50, Normal Strain [1] [μg/8 cm^2]	LD50, Resistant Strain [2] [μg/8 cm^2]	LD50 to mice [3] [mg/kg]
CCOC(=O)CC(SP(=S)(OC)OC)C(=O)OCC (stereo not drawn) [malathion]	50	40	–
CN(C)C(=O)Oc1cccc([N+](C)(C)C)c1 [neostigmine]	–	–	0.42
